Measurements taken from US20240325530A1, “COMBINATION THERAPIES” (Versanis Bio, Inc., priority 2021, published 2024).
Like-named read-outs stand apart in the source and are kept apart here.

Assays:
[1] = Obese mouse model (60% fat diet), initial study: food intake, body composition by MRI, physical activity; set-up: species or system C57B1/6J mice; details: in vivo
Experimental: C57B1/6J mice at 5-6 weeks of age were fed a 60% fat diet for 14 weeks and reached an average body weight of 49 grams at the start of dosing, as an obese mouse model. Employing a modified 3×3 factorial design, groups of mice (n=8 per group) received a murinized version of bimagrumab, CDD866, at 0.3 mg/kg or 20 mg/kg intraperitoneally (i.p.) weekly and/or semaglutide at 5 μg/kg or 40 μg/kg subcutaneously (s.c.) daily. The high fat diet was continued through the treatment period, and food intake and body weight were monitored twice weekly. Clinical observations, body composition by MRI, and physical activity, were assessed once weekly.

[2] = Pharmacokinetics of semaglutide and CDD866 alone and combined in DIO mice; assay type: in vivo; details: analyte semaglutide, mean plasma; for MRT inf / MRT last: mouse; for MRT inf: read-out: MRT0-inf; for MRT last: read-out: MRT0-last
Experimental: Dedicated cohorts of diet induced obesity (DIO) mice were used. Blood sampling was performed at 5 time points, with 3 mice per time point.

[3] = DIO mice: CDD866 combined with semaglutide, liraglutide or tirzepatide (body weight, fat, lean mass, food intake, open field); assay type: in vivo; details: Day 22, DIO mice; CDD866 20 mg/kg, semaglutide 40 μg/kg, tirzepatide 45/22.5 μg/kg (Table 4)
Experimental: DIO mice received a murinized version of bimagrumab, CDD866, at 20 mg/kg intraperitoneally (i.p.) weekly in combination with semaglutide (40 μg/kg once daily), liraglutide (40 μg/kg twice daily), or tirzepatide at 45 μg/kg once daily and after day 11, 22.5 μg/kg once daily) subcutaneously (s.c.). The GLP-1 agonists in this study were not dose escalated.

[4] = overweight and obese patients; cited from earlier work
[5] = group CDD866-20 mpk + Semaglutide-40 ug/kg

## CC[C@H](C)[C@H](NC(=O)[C@H](Cc1ccccc1)NC(=O)[C@H](CCC(=O)O)NC(=O)[C@H](CCCCNC(=O)COCCOCCNC(=O)COCCOCCNC(=O)CC[C@H](NC(=O)CCCCCCCCCCCCCCCCC(=O)O)C(=O)O)NC(=O)[C@H](C)NC(=O)[C@H](C)NC(=O)[C@H](CCC(N)=O)NC(=O)CNC(=O)[C@H](CCC(=O)O)NC(=O)[C@H](CC(C)C)NC(=O)[C@H](Cc1ccc(O)cc1)NC(=O)[C@H](CO)NC(=O)[C@H](CO)NC(=O)[C@@H](NC(=O)[C@H](CC(=O)O)NC(=O)[C@H](CO)NC(=O)[C@@H](NC(=O)[C@H](Cc1ccccc1)NC(=O)[C@@H](NC(=O)CNC(=O)[C@H](CCC(=O)O)NC(=O)C(C)(C)NC(=O)[C@@H](N)Cc1cnc[nH]1)[C@@H](C)O)[C@@H](C)O)C(C)C)C(=O)N[C@@H](C)C(=O)N[C@@H](Cc1c[nH]c2ccccc12)C(=O)N[C@@H](CC(C)C)C(=O)N[C@H](C(=O)N[C@@H](CCCNC(=N)N)C(=O)NCC(=O)N[C@@H](CCCNC(=N)N)C(=O)NCC(=O)O)C(C)C [Semaglutide, semaglutide]
[1]
  clinical observations: no clinical observations of concern
[2]; [5]
  Tlast: 24.0 h
  MRT inf: 16.6 h
  MRT last: 9.76 h
[2]; group Semaglutide-5 ug/kg
  Tlast: 8.00 h
  MRT last: 4.38 h
[2]; group Semaglutide-40 ug/kg
  Tlast: 24.0 h
  MRT inf: 15.2 h
  MRT last: 10 h

## tirzepatide
[3]
  Body weight: 40.2 ± 1.3 g
  Fat: 12.7 ± 1.4 g
  Lean mass: 25.4 ± 0.4 g

B1: Bimagrumab: ActRII receptor antibody, sequences SEQ ID NO: 1-10 (antibody, chains of the INN, looked up, V domains shown)
VH: QVQLVQSGAEVKKPGASVKVSCKASGYTFTSSYINWVRQAPGQGLEWMGTINPVSGSTSYAQKFQGRVTMTRDTSISTAYMELSRLRSDDTAVYYCARGGWFDYWGQGTLVTVSS
VL: QSALTQPASVSGSPGQSITISCTGTSSDVGSYNYVNWYQQHPGKAPKLMIYGVSKRPSGVSNRFSGSKSGNTASLTISGLQAEDEADYYCGTFAGGSYYGVFGGGTKLTVL
[4]
  increase in muscle mass: 4-8%
